# In patent US9283280B2, “Compositions for drug administration” (Aegis Therapeutics, LLC, priority 2008, dated 2016):
# Key:
# [1] = tested on: Staphylococcus aureus (ATCC No. 6538); assay: Antimicrobial activity of alkylglycoside solutions, plate count log reduction; assay type: cell-based; settings: […]
# Excerpt: (§1) 20110-2209. The viable microorganisms used in the invention were not more than five passages removed from the original ATCC culture. As described herein, one passage is defined as the transfer of organisms from an established culture to fresh medium and all transfers are counted.
# (§2) Cultures received from the ATCC are resuscitated according to the directions provided by the ATTC. Cells grown in broth were pelleted by centrifugation, resuspended in 1/20th the volume of fresh maintenance broth, and combined with an equal volume of 20% (v/v in water) sterile glycerol. Cells grown on agar were scraped from the surface into the maintenance broth also containing 10% glycerol broth. Small aliquots of the suspension were dispensed into sterile vials and the vials were stored in liquid nitrogen or in a mechanical freezer at a temperature no higher than about −50° C. When a fresh seed-stock vial was required, it was removed and used to inoculate a series of working stock cultures. These working stock cultures were then used periodically (each day in the case of bacteria and yeast) to start the inoculum culture.
# (§3) The culture conditions for the inoculum culture is substantially as described in Table IV. For example, suitable media can include but is not limited to, Soybean-Casein Digest or Sabouraud Dextrose Agar Medium. […]
# (§4) The suspension should be refrigerated if it is not used within 2 hours. To confirm the initial cfu per mL estimate, the number of cfu per mL in each suspension was determined using the conditions of media and microbial recovery incubation times listed in Table IV (e.g., from about 3 to about 7 days). This value serves to calibrate the size of inoculum used in the test. The bacterial and yeast suspensions were used within 24 hours of harvest; whereas the fungal preparation can be stored under refrigeration for up to 7 days.
# (§5) To determine which alkylglycoside formulations have antibacterial activity, the formulations were prepared in phosphate buffered saline (PBS) at pH 7. As a source of nutrition, either 1.5 mg/mL bovine serum albumin (BSA; see Tables V and VI) or 1 mg/mL of PYY was added (see Table VII) to the medium. BSA (CAS Number: 9048-46-8) was obtained from Sigma-Aldrich, St. Louis, Mo., USA, n-dodecyl-4-O-α-D-glucopyranosyl-β-D-glucopyranoside and n-tetradecyl-4-O-α-D-glucopyranosyl-β-D-glucopyranoside were obtained from Anatrace Inc., Maumee, Ohio, USA, and PYY was obtained from Bachem California Inc., Torrance, Calif., USA.
# (§6) Antibacterial activity of the alkylglycosides were conducted in four sterile, capped bacteriological containers of suitable size into which a sufficient volume of alkylglycoside solution had been transferred. Each container was inoculated with one of the prepared and standardized inoculums and mixed. The volume of the suspension inoculum was between about 0.5% and about 1.0% of the volume of the alkylglycoside solution. […]. To determine the level of inhibition of growth, or reduction of growth based on a logarithmic scale, the initial concentration of viable microorganisms in each test preparation was estimated based on the concentration of microorganisms in each of the standardized inoculum as determined by the plate-count method. The inoculated containers were then incubated at about 22.5° C.±2.5. The growth or non-growth of the microorganisms in each culture/container were again determined at day 14 and day 28. The number of cfu present in each calculation was determined by the plate-count procedure standard in the art for the applicable intervals. The change in the orders of magnitude of bacterium and/or fungi was then determined by subtracting the first calculated log 10 values of the concentrations of cfu per mL present at the start or beginning (e.g., day 0), from the log 10 values of the concentration of cfu per mL for each microorganism at the applicable test intervals (e.g., day 14 and day 28; see Tables V, VI and VII).
# [2] = tested on: Escherichia coli (ATCC No. 8739); assay: as above; assay type: cell-based; settings: […]
# Excerpt: as §1, §2, §3, §4, §5, §6
# [3] = tested on: Aspergillus niger (ATCC No. 16404); assay: as above; assay type: cell-based; settings: […]
# Excerpt: as §1, §2, §3, §4, §5, §6
# [4] = tested on: Candida albicans (ATCC No. 10231); assay: as above; assay type: cell-based; settings: […]
# Excerpt: as §1, §2, §3, §4, §5, §6
# blood D-glucose [5] = assay: Insulin eye drops with absorption enhancer in xylazine/ketamine-anesthetized hyperglycemic rats, blood D-glucose; assay type: in vivo, rat; settings: for Blood Glucose Concentrations: insulin eye drops + 0.50% dodecyl maltoside
# [6] = Intranasal triptans with alkylsaccharide in rats, plasma levels by HPLC; assay type: in vivo;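 further: rats in groups of eight given 20 µL into one nostril, dose expressed as triptan free base, Cmax and Tmax read from plasma concentration–time curves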
# Description: Each set of drug solutions is administered to six groups of eight rats each by 20 uL instillation to a single nare of each animal. […] After the last blood sample is collected each animal is cuthanizcd with CO2. After blood collection, plasma is immediately prepared from each blood sample using lithium/heparin as the anticoagulant. Plasma samples are stored at −70° C. until analyzed. […] The observed Tmax values from each plot is determined by inspection of the concentration vs time plots and recorded as shown in Table XII. The doses designated in this table reflect amounts of triptan free base in each case.
# human nasal epithelium = settings: in vivo
# blood D-glucose [7] = assay: Glucagon eye drops with surfactant in rats, elevation of blood D-glucose; settings: for Blood Glucose Concentration: glucagon eye drops + 0.5% surfactant added after 120 min
# Description: Glucagon absorption from the eye was measured in rats given eye drops containing various surfactants plus glucagon (30 μg) (Eli Lilly, Indianapolis, Ind.) by monitoring an elevation in blood D-glucose levels. In these experiments, rats were anesthetized with sodium pentobarbital rather than xylazine/ketamin.
# Paired animals that receive eye drops containing the surfactant alone, or glucagon alone, were compared to animals receiving eye drops with the surfactant plus glucagon.
# [8] = eye drops 0.2% insulin + 0.5% enhancer
# [9] = Naratriptan 0.22 mg/kg intranasal, alkylsaccharide 0.02%
# [10] = Naratriptan 0.22 mg/kg intranasal, alkylsaccharide 0.05%
# [11] = Naratriptan 0.22 mg/kg intranasal, alkylsaccharide 0.1%
# [12] = Naratriptan 0.22 mg/kg intranasal, alkylsaccharide 0.5%
# [13] = Naratriptan 0.22 mg/kg intranasal, alkylsaccharide 2%
# [14] = Rizatriptan […] intranasal, alkylsaccharide 0.02%
# [15] = Rizatriptan […] intranasal, alkylsaccharide 0.05%
# [16] = Rizatriptan […] intranasal, alkylsaccharide 0.1%
# [17] = Rizatriptan […] intranasal, alkylsaccharide 0.5%
# [18] = Rizatriptan […] intranasal, alkylsaccharide 2%
# [19] = Sumatriptan 6.2 mg/kg intranasal, alkylsaccharide 0.02%
# [20] = Sumatriptan 6.2 mg/kg intranasal, alkylsaccharide 0.05%
# [21] = Sumatriptan 6.2 mg/kg intranasal, alkylsaccharide 0.1%
# [22] = Sumatriptan 6.2 mg/kg intranasal, alkylsaccharide 0.5%
# [23] = Sumatriptan 6.2 mg/kg intranasal, alkylsaccharide 2%
smiles,measurement,setting,value
"CCCCCCCCCCCCO[C@@H]1O[C@H](CO)[C@@H](O[C@H]2O[C@H](CO)[C@@H](O)[C@H](O)[C@H]2O)[C@H](O)[C@H]1O [dodecyl maltoside, n-dodecyl-4-O-α-D-glucopyranosyl-β-D-glucopyranoside]","Log Reduction of Microorganisms, Day 14",[1]; BSA,≧5.2 orders of orders of magnitude reduction
same,"Log Reduction of Microorganisms, Day 28",[1]; BSA,≧5.2 orders of orders of magnitude reduction
same,"Log Reduction, Day 14",[1]; PYY,≧4.9 orders of orders of magnitude reduction
same,"Log Reduction, Day 28",[1]; PYY,≧4.9 orders of orders of magnitude reduction
same,"Log Reduction of Microorganisms, Day 28",[2]; BSA,0.1 orders of orders of magnitude reduction
same,"Log Reduction, Day 14",[2]; PYY,≧5 orders of orders of magnitude reduction
same,"Log Reduction, Day 28",[2]; PYY,≧5 orders of orders of magnitude reduction
same,"Log Reduction of Microorganisms, Day 14",[3]; BSA,0.7 orders of orders of magnitude reduction
same,"Log Reduction, Day 14",[3]; PYY,4.7 orders of orders of magnitude reduction
same,"Log Reduction, Day 28",[3]; PYY,4.7 orders of orders of magnitude reduction
same,"Log Reduction of Microorganisms, Day 14",[4]; BSA,3.0 orders of orders of magnitude reduction
same,"Log Reduction of Microorganisms, Day 28",[4]; BSA,≧5.3 orders of orders of magnitude reduction
same,"Log Reduction, Day 14",[4]; PYY,≧4.5 orders of orders of magnitude reduction
same,"Log Reduction, Day 28",[4]; PYY,≧4.5 orders of orders of magnitude reduction
same,hypoglycemic effect / insulin absorption enhancement,blood D-glucose [5]; [8],equally effective
same,hypoglycemic effect / insulin absorption enhancement,"blood D-glucose [5]; eye drops 0.2% insulin + 0.5% enhancer, listed as dodecyl-β3-D-maltoside",prompt and sustained fall in blood glucose levels
same,Blood Glucose Concentrations,blood D-glucose [5]; time 0 min,379 ± 4 mg/dL
same,Blood Glucose Concentrations,blood D-glucose [5]; time 30 min,297 ± 18 mg/dL
same,Blood Glucose Concentrations,blood D-glucose [5]; time 60 min,188 ± 25 mg/dL
same,Blood Glucose Concentrations,blood D-glucose [5]; time 90 min,141 ± 13 mg/dL
same,Blood Glucose Concentrations,blood D-glucose [5]; time 120 min,123 ± 5 mg/dL
same,Blood Glucose Concentrations,blood D-glucose [5]; time −10 min,366 ± 12 mg/dL
same,Blood Glucose Concentrations,blood D-glucose [5]; time −20 min,375 ± 9 mg/dL
same,Ratio Cmax(alkylsacch)/Cmax(No alkylsacch),[6]; [9],≦1.5
same,Tmax,[6]; [9],~60 to 120 min
same,Ratio Cmax(alkylsacch)/Cmax(No alkylsacch),[6]; [10],≧1.5
same,Tmax,[6]; [10],~5 to 15 min
same,Ratio Cmax(alkylsacch)/Cmax(No alkylsacch),[6]; [11],≧1.5
same,Tmax,[6]; [11],~5 to 15 min
same,Ratio Cmax(alkylsacch)/Cmax(No alkylsacch),[6]; [12],≧1.5
same,Tmax,[6]; [12],~5 to 15 min
same,Ratio Cmax(alkylsacch)/Cmax(No alkylsacch),[6]; [13],≧1.5
same,Tmax,[6]; [13],~5 to 15 min
same,Tmax,[6]; [14],~60 to 120 min
same,Tmax,[6]; [15],~5 to 15 min
same,Tmax,[6]; [16],~5 to 15 min
same,Tmax,[6]; [17],~5 to 15 min
same,Tmax,[6]; [18],~5 to 15 min
same,Ratio Cmax(alkylsacch)/Cmax(No alkylsacch),[6]; [19],≦1.5
same,Tmax,[6]; [19],~60 to 120 min
same,Ratio Cmax(alkylsacch)/Cmax(No alkylsacch),[6]; [20],≧1.5
same,Tmax,[6]; [20],~5 to 15 min
same,Ratio Cmax(alkylsacch)/Cmax(No alkylsacch),[6]; [21],≧1.5
same,Tmax,[6]; [21],~5 to 15 min
same,Ratio Cmax(alkylsacch)/Cmax(No alkylsacch),[6]; [22],≧1.5
same,Tmax,[6]; [22],~5 to 15 min
same,Ratio Cmax(alkylsacch)/Cmax(No alkylsacch),[6]; [23],≧1.5
same,Tmax,[6]; [23],~5 to 15 min
CCCCCCCCCCCC(=O)OC[C@H]1O[C@H](O[C@]2(CO)O[C@H](CO)[C@@H](O)[C@@H]2O)[C@H](O)[C@@H](O)[C@@H]1O [sucrose dodecanoate],irritation of the nasal mucosa,human nasal epithelium,no observable irritation
"CCCCCCCCCCCCCO[C@@H]1O[C@H](CO)[C@@H](O[C@H]2O[C@H](CO)[C@@H](O)[C@H](O)[C@H]2O)[C@H](O)[C@H]1O [tridecyl maltoside, tridecyl-β-D-maltoside]",glucagon absorption / blood D-glucose values,blood D-glucose [7]; eye drops surfactant plus glucagon in rats previously treated with surfactant plus insulin eye drops,increase significantly
same,Blood Glucose Concentration,blood D-glucose [7]; time 130 min,82 mg/dL
same,Blood Glucose Concentration,blood D-glucose [7]; time 140 min,121 mg/dL
same,Blood Glucose Concentration,blood D-glucose [7]; time 150 min,148 mg/dL
same,Blood Glucose Concentration,blood D-glucose [7]; time 160 min,173 mg/dL
same,Blood Glucose Concentration,blood D-glucose [7]; time 170 min,162 mg/dL
same,Blood Glucose Concentration,blood D-glucose [7]; time 180 min,162 mg/dL
same,Blood Glucose Concentration,blood D-glucose [7]; time 190 min,156 mg/dL
same,Blood Glucose Concentration,"blood D-glucose [5]; 0.5% surfactant, time −10 min, before insulin eye drops",307 mg/dL
same,Blood Glucose Concentration,"blood D-glucose [5]; 0.5% surfactant, time −20 min, before insulin eye drops",255 mg/dL
same,hypoglycemic effect / insulin absorption enhancement,blood D-glucose [5]; [8],effective
same,hypoglycemic effect / insulin absorption enhancement,blood D-glucose [5]; eye drops 0.2% insulin + […] enhancer,sustained for the two hour time course
same,Blood Glucose Concentration,"blood D-glucose [5]; insulin eye drops + 0.5% surfactant, time 0 min",323 mg/dL
same,Blood Glucose Concentration,"blood D-glucose [5]; insulin eye drops + 0.5% surfactant, time 10 min",309 mg/dL
same,Blood Glucose Concentration,"blood D-glucose [5]; insulin eye drops + 0.5% surfactant, time 20 min",217 mg/dL
same,Blood Glucose Concentration,"blood D-glucose [5]; insulin eye drops + 0.5% surfactant, time 30 min",131 mg/dL
same,Blood Glucose Concentration,"blood D-glucose [5]; insulin eye drops + 0.5% surfactant, time 40 min",100 mg/dL
same,Blood Glucose Concentration,"blood D-glucose [5]; insulin eye drops + 0.5% surfactant, time 50 min",87 mg/dL
same,Blood Glucose Concentration,"blood D-glucose [5]; insulin eye drops + 0.5% surfactant, time 60 min",107 mg/dL
same,Blood Glucose Concentration,"blood D-glucose [5]; insulin eye drops + 0.5% surfactant, time 70 min",115 mg/dL
same,Blood Glucose Concentration,"blood D-glucose [5]; insulin eye drops + 0.5% surfactant, time 80 min",79 mg/dL
same,Blood Glucose Concentration,"blood D-glucose [5]; insulin eye drops + 0.5% surfactant, time 90 min",85 mg/dL
same,Blood Glucose Concentration,"blood D-glucose [5]; insulin eye drops + 0.5% surfactant, time 100 min",76 mg/dL
same,Blood Glucose Concentration,"blood D-glucose [5]; insulin eye drops + 0.5% surfactant, time 110 min",74 mg/dL
same,Blood Glucose Concentration,"blood D-glucose [5]; insulin eye drops + 0.5% surfactant, time 120 min",75 mg/dL
same,Ratio Cmax(alkylsacch)/Cmax(No alkylsacch),[6]; [9],≦1.5
same,Tmax,[6]; [9],~60 min
same,Ratio Cmax(alkylsacch)/Cmax(No alkylsacch),[6]; [10],≧1.5
same,Tmax,[6]; [10],~5 to 15 min
same,Ratio Cmax(alkylsacch)/Cmax(No alkylsacch),[6]; [11],≧1.5
same,Tmax,[6]; [11],~5 to 15 min
same,Ratio Cmax(alkylsacch)/Cmax(No alkylsacch),[6]; [12],≧1.5
same,Tmax,[6]; [12],~5 to 15 min
same,Ratio Cmax(alkylsacch)/Cmax(No alkylsacch),[6]; [13],≧1.5
same,Tmax,[6]; [13],~5 to 15 min
same,Tmax,[6]; [14],~60 min
same,Tmax,[6]; [15],~5 to 15 min
same,Tmax,[6]; [16],~5 to 15 min
same,Tmax,[6]; [17],~5 to 15 min
same,Tmax,[6]; [18],~5 to 15 min
same,Ratio Cmax(alkylsacch)/Cmax(No alkylsacch),[6]; [19],≦1.5
same,Tmax,[6]; [19],~60 min
same,Ratio Cmax(alkylsacch)/Cmax(No alkylsacch),[6]; [20],≧1.5
same,Tmax,[6]; [20],~5 to 15 min
same,Ratio Cmax(alkylsacch)/Cmax(No alkylsacch),[6]; [21],≧1.5
same,Tmax,[6]; [21],~5 to 15 min
same,Ratio Cmax(alkylsacch)/Cmax(No alkylsacch),[6]; [22],≧1.5
same,Tmax,[6]; [22],~5 to 15 min
same,Ratio Cmax(alkylsacch)/Cmax(No alkylsacch),[6]; [23],≧1.5
same,Tmax,[6]; [23],~5 to 15 min
